The values below come from patent US11008360B2, “Indoleacetic acid derivative and preparation method and pharmaceutical use thereof” (Institute of Chinese Materia Medica, China Academy of …, priority 2017, dated 2021).

Marks after values point to notes of the source that are not given here.

The subject of assay [1] is citric acid-induced cough in guinea pigs. Kind of assay: Citric acid-induced cough test. It is filed as in vivo. The following applies: x ± s. The source says: Test animals: Guinea pigs (body weight 180-220 g, half male and half female), purchased from Beijing Vital River Laboratory Animal Technology Co., Ltd.
(§1) Test reagent: Codeine phosphate (Europharm Laboratoires Co., Ltd.).
The devices are the same as in Test Example 1.
The guinea pigs were adaptively fed for 1 day followed by preliminary screening.
The guinea pigs were placed one by one in an inverted 5 L sealed glass bell jar, and treated by a constant pressure spray stimulation (17.5% citric acid solution) for one minute. The number of coughs within 5 minutes from the spray was recorded, and the guinea pigs which coughed more than 10 times were chosen as qualified test animals. The qualified guinea pigs were randomly grouped into blank control group, compound of the present invention group, and codeine phosphate-positive control group. The above groups were intragastrically administrated with the drugs according to body weight, and the blank control group was administrated with equal volume of distilled water. The intragastrical administration was carried out for five consecutive days. The guinea pigs were placed in an inverted 5 L sealed glass bell jar for one hour after the last administration, and treated by the nebulizer for 30 seconds. The latentperiod of the cough of the guinea pigs (the time from starting spraying of 17.5% citric acid to coughing starting) and the number of coughs within 5 minutes were observed.
(§2) Statistical method: data analysis of the experimental data was carried out with SPSS 10.0 statistical software, and t-test was used for comparison between groups.

Assay [2] deals with aqueous ammonia-induced cough in mice. Kind of assay: Aqueous ammonia-induced cough test. The following applies: x ± s, n=16. It is filed as in vivo, Kunming mice.
Text: Test animals: Kunming mice (body weight 18-22 g, half male and half female), purchased from Beijing Vital River Laboratory Animal Technology Co., Ltd., with Certificate No.: SCXK-(Beijing)2012-001.
as §1
Device: YC-Y800 Medical ultrasonic nebulizer (Beijing Yadu Technology Co., Ltd., with Beijing Pharmaceutical Supervision Certificate No.: Beijing 99 No. 223145); UV-2450 UV-visible spectrophotometer (Shimadzu Co., Japan); UX420S Animal balance (Shimadzu Co., Japan); and milli electronic balance (Sartorius Co., Germany).
The mice were adaptively fed for 3 days followed by screening. The ultrasonic nebulizer was preheated, and added with 40 ml of fresh aqueous ammonia solution (12.5%). The mice were placed in 1000 ml beaker. The beaker's mouth was sealed with a plastic wrap with two holes opened (one for inserting the ultrasonic atomizer outlet tube, and the other for ventilation). Ammonia was continuously introduced by the ultrasonic atomizer at its minimal power for 60 seconds, followed by stopping the ultrasonic atomizer immediately. The plastic wrap was quickly opened to allow the ammonia to diffuse naturally. Mice which coughed for less than 10 times or more than 80 times within three minutes were excluded. The qualified mice were randomly grouped into blank control group, compound of the present invention group, and codeine phosphate-positive control group. The above groups were intragastrically administrated with the drugs according to body weight, and the blank control group was administrated with equal volume of distilled water. The administration was carried out once a day for five consecutive days. The mice were placed one by one in an inverted 5 L sealed glass bell jar for one hour after the last administration, and treated by a constant pressure ammonia spray stimulation for 15 seconds (10 mL of ammonia spray/time for one mouse, and changed each time). After the stimulation stopped, the mice were taken out to observe the latentperiod of the cough of the mice (the time from spraying starting to coughing starting) and the number of coughs within 2 minutes (cough was identified by severely contracting the abdominal muscles and opening the mouth, with a slight cough sound sometimes).
as §2

Assay [3] relates to tracheal phenol red excretion amount in mice. Description: Phlegm-reducing effect (tracheal phenol red excretion). It is filed as in vivo, Kunming mice. The following applies: x ± s, n=16. The source says:
Test animals: Kunming mice (body weight 18-22 g, half male and half female), purchased from Beijing Vital River Laboratory Animal Technology Co., Ltd. Test reagent: Ammonium chloride (Guangzhou Chemical Reagent Factory). The devices were the same as in Test Example 1. According to the method of LI Yikui's phlegm-reducing test, the mice were fed normally for 3 days, and then randomly grouped into blank control group, compound of the present invention group, and ammonium chloride-positive control group. […] The phenol red excretion amount was calculated from the phenol red standard curve, and the significance of the difference between the groups was compared. Statistical method: data analysis of the experimental data was carried out with SPSS 10.0 statistical software, and t-test was used for comparison between groups.

[4] abbreviates: 20 mg·kg^-1 intragastric for five days, 17.5% citric acid spray 1 h after last administration.
[5] abbreviates: 20 mg·kg^-1 intragastric once a day for five days, ammonia spray 1 h after last administration.
Setting [6] is: 20 mg·kg^-1 intragastric for five days, phenol red i.p. 30 min after last administration.
Setting [7] is: positive control dose 15 mL·kg^-1 intragastric once a day for five days.

In turn, `O=C(O)C[C@@H](NC(=O)Cc1cn([C@@H]2O[C@H](CO)[C@@H](O)[C@H](O)[C@H]2O)c2ccc(Cl)cc12)C(=O)O` [Compound 5, (2-(5-chloro-1-((2R,3R,4S,5S,6R)-3,4,5-trihydroxy-6-(hydroxymethyl)tetrahydro-2H-pyran-2-yl)-1H-indol-3-yl)acetyl)-D-aspartic acid] displayed a Latentperiod in assay [1] (setting [4]) of 110 ± 32 s. In assay [2] (setting [5]), this compound registered a Latentperiod of 42.6 ± 11.2 s and a Number of coughs of 19.6 ± 5.1 times/2 min. The “Tracheal phenol red excretion amount” value in assay [3] (setting [6]) was found to be 0.831 ± 0.107 mg/L.

On to `COc1ccc2c3c1O[C@H]1[C@@H](O)C=C[C@H]4[C@@H](C2)N(C)CC[C@@]341` [Codeine phosphate, reference compound], for which the Latentperiod in assay [1] (positive control dose 15 mL·kg^-1 intragastric for five days, n=18) worked out at 107 ± 41 s. In assay [2] (setting [7]), this compound yielded a Latentperiod of 48.3 ± 5.9 s and a Number of coughs of 14.2 ± 6.5 times/2 min.

As for `COc1ccc2c(c1)c(CC(=O)N[C@H](CC(=O)O)C(=O)O)cn2[C@@H]1O[C@H](CO)[C@@H](O)[C@H](O)[C@H]1O` [Compound 4], the figures for the Latentperiod in assay [1] (setting [4]) and in assay [2] (setting [5]) were 120 ± 55 s and 40.3 ± 5.5 s, respectively. Also, the Number of coughs in assay [2] (setting [5]) is listed as 18.5 ± 4.3 times/2 min. For the same compound, the “Tracheal phenol red excretion amount” value in assay [3] (setting [6]) stood at 1.072 ± 0.221 mg/L.

On to `O=C(O)C[C@@H](NC(=O)Cc1cn([C@@H]2O[C@H](CO)[C@@H](O)[C@H](O)[C@H]2O)c2ccc(Br)cc12)C(=O)O` [Compound 6, (2-(5-bromo-1-((2R,3R,4S,5S,6R)-3,4,5-trihydroxy-6-(hydroxymethyl)tetrahydro-2H-pyran-2-yl)-1H-indol-3-yl)acetyl)-D-aspartic acid], for which the Latentperiod in assay [1] (setting [4]) worked out at 127 ± 52 s. In assay [2] (setting [5]), the Latentperiod came to 40.7 ± 5.2 s and the Number of coughs is recorded as 21.8 ± 7.3 times/2 min. Further, the “Tracheal phenol red excretion amount” value in assay [3] (setting [6]) turned out to be 0.888 ± 0.145 mg/L.

Take `Cc1ccc2c(c1)c(CC(=O)N[C@H](CC(=O)O)C(=O)O)cn2[C@@H]1O[C@H](CO)[C@@H](O)[C@H](O)[C@H]1O` [Compound 3, (2-(5-methyl-1-((2R,3R,4S,5S,6R)-3,4,5-trihydroxy-6-(hydroxymethyl)tetrahydro-2H-pyran-2-yl)-1H-indol-3-yl)acetyl)-D-aspartic acid]: the Latentperiod in assay [1] (setting [4]) was 128 ± 65 s. In assay [2] (setting [5]), this compound yielded a Latentperiod of 38.1 ± 5.3 s and a Number of coughs of 20.7 ± 5.2 times/2 min. Moreover, the “Tracheal phenol red excretion amount” value in assay [3] (setting [6]) worked out at 0.971 ± 0.114 mg/L.

`COc1cccc2c(CC(=O)N[C@H](CC(=O)O)C(=O)O)cn([C@@H]3O[C@H](CO)[C@@H](O)[C@H](O)[C@H]3O)c12` [Compound 8] displayed a Latentperiod in assay [1] (setting [4]) of 110 ± 32 s. In assay [2] (setting [5]), this compound yielded a Latentperiod of 39.6 ± 5.5 s and a Number of coughs of 19.2 ± 4.7 times/2 min. Besides, in assay [3] (setting [6]), the “Tracheal phenol red excretion amount” value is 1.142 ± 0.132 mg/L.

Compound `Cc1ccc2c(c1)c(CC(=O)N[C@H](CCC(=O)O)C(=O)O)cn2[C@@H]1O[C@H](CO)[C@@H](O)[C@H](O)[C@H]1O` [Compound 9] displayed a Latentperiod in assay [1] (setting [4]) of 121 ± 47 s. In assay [2] (setting [5]), this compound yielded a Latentperiod of 38.1 ± 4.7 s and a Number of coughs of 23.8 ± 5.1 times/2 min. For the same compound, the “Tracheal phenol red excretion amount” value in assay [3] (setting [6]) is listed as 1.089 ± 0.139**^1 mg · L^−1.

In assay [1] (setting [4]), `O=C(O)CC[C@@H](NC(=O)Cc1cn([C@@H]2O[C@H](CO)[C@@H](O)[C@H](O)[C@H]2O)c2ccccc12)C(=O)O` [Compound 2, (2-(1-((2R,3R,4S,5S,6R)-3,4,5-trihydroxy-6-(hydroxymethyl)tetrahydro-2H-pyran-2-yl)-1H-indol-3-yl)acetyl)-D-glutamic acid] had a Latentperiod of 98 ± 59 s. In addition, in assay [2] (setting [5]), the Latentperiod is given as 48.5 ± 9.4 s and the Number of coughs was found to be 17.3 ± 4.6 times/2 min. In assay [3] (setting [6]), the “Tracheal phenol red excretion amount” value is 0.988 ± 0.211 mg/L.

With `O=C(O)CC[C@@H](NC(=O)Cc1cn([C@@H]2O[C@H](CO)[C@@H](O)[C@H](O)[C@H]2O)c2ccc(Cl)cc12)C(=O)O` [Compound 10], the Latentperiod in assay [1] (setting [4]) was 139 ± 41 s; in assay [2] (setting [5]), 39.4 ± 4.1 s. Further, in assay [2] (setting [5]), the Number of coughs came to 19.4 ± 6.3 times/2 min. Besides, the “Tracheal phenol red excretion amount” value in assay [3] (setting [6]) was determined as 0.962 ± 0.101 mg/L.

Regarding `Cl.N` [Ammonium chloride, reference compound], the “Tracheal phenol red excretion amount” value in assay [3] (positive control dose 1000 mg·kg^-1 intragastric for five days) is 1.068 ± 0.224 mg/L.

Compound `Cc1cccc2c(CC(=O)N[C@H](CC(=O)O)C(=O)O)cn([C@@H]3O[C@H](CO)[C@@H](O)[C@H](O)[C@H]3O)c12` [Compound 7] registered a Latentperiod in assay [1] (setting [4]) of 130 ± 22 s. Besides, in assay [2] (setting [5]), the Latentperiod turned out to be 42.1 ± 7.2 s and the Number of coughs is 18.6 ± 8.5 times/2 min. In addition, in assay [3] (setting [6]), the “Tracheal phenol red excretion amount” value was found to be 0.956 ± 0.270 mg/L.

`O=C(O)C[C@@H](NC(=O)Cc1cn([C@@H]2O[C@H](CO)[C@@H](O)[C@H](O)[C@H]2O)c2ccccc12)C(=O)O` [Compound 1, (2-(1-((2R,3R,4S,5S,6R)-3,4,5-trihydroxy-6-(hydroxymethyl)tetrahydro-2H-pyran-2-yl)-1H-indol-3-yl)acetyl)-D-aspartic acid] returned a Latentperiod in assay [1] (setting [4]) of 147 ± 89 s. In assay [2] (setting [5]), the Latentperiod stood at 45.8 ± 8.2 s and the Number of coughs was 19.1 ± 10.7 times/2 min. Further, the “Tracheal phenol red excretion amount” value in assay [3] (setting [6]) came out at 1.125 ± 0.129 mg/L.
